Assay results as given in patent US5288720A, “Angiotensin II receptor blocking 2,3,6 substituted quinazolinones” (American Cyanamid Company, priority 1993, dated 1994).

What was measured:
[1] = target: T1, Angiotensin II Receptor (Bos taurus, UniProt P25104); test: Receptor Binding Assay: Binding of [^125 I](Sar^1,Ile^8)AngII to beef adrenal cortex membranes; settings: 60 min, room temperature
T1 construct: The brownish tissue forming the adrenal cortex is scraped off and finely minced with scissors before homogenization; from tissue; host or cells: beef adrenal cortex, microsomal membranes (100,000×g pellet); fresh glands from a local slaughter house (Maxwell-Cohen)
T1 sequence (P25104 1-359): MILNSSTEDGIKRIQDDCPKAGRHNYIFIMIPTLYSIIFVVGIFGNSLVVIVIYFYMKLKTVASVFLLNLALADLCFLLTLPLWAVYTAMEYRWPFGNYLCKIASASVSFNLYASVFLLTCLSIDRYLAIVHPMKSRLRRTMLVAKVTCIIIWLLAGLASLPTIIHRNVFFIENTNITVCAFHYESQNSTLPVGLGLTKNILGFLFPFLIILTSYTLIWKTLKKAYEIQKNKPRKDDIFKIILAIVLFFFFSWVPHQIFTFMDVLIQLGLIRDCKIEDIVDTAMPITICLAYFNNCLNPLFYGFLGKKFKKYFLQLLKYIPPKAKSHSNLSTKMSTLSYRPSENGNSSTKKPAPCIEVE
From the text: Beef adrenals are obtained from a local slaughter house (Maxwell-Cohen). [^125 […]. 2200 Ci/mmole, is purchased from Dupont (NEN®, Boston, Mass.). All unlabeled AngII analogs, Dimethylsulfoxide (DMSO), nucleotides, bovine serum albumin (BSA) are purchased from Sigma Chemical Co., St. Louis, Mo. U.S.A. […] Approximately sixteen (16) to twenty (20) beef adrenal glands are processed as follows: fresh adrenal glands received on crushed ice are cleaned of fatty tissues and the tough membranes encapsulating the glands are removed and discarded. The brownish tissue forming the adrenal cortex is scraped off and finely minced with scissors before homogenization. Care is taken to avoid contamination with medullary tissue during dissection. The scraped cortices are suspended in twenty volumes of an ice-cold buffer medium consisting of 10 mM Tris.HCl (pH 7.4 at 22° C.) and containing 1.0 mM EDTA and 0.2M sucrose. Unless otherwise indicated, all subsequent operations are done at 4° C. […] The homogenate is centrifuged first at low speed (3,000×g) for 10 minutes. […] This P2 pellet is discarded and the liquid phase is carefully decanted off in clean centrifuge tubes and recentrifuged at high speed (100,000×g) for 60 minutes. The translucent final pellet is harvested and combined in a small volume (20-50.0 ml) of 50.0 mM Tris.HCl buffer, pH 7.2. A 100 ul aliquot is withdrawn and the protein content of the preparation is determined by the Lowry's method (Lowry, O. H., Rosebrough, […]. and Randall, R. J., Protein measurement with Folin phenol reagent. J. Biol. Chem., […], 265-275, 1951). The pelleted membrane is reconstituted in 50.0 mM Tris.HCl buffer containing 0.1 mM of phenylmethylsulfonyl fluoride (PMSF) to give approximately a protein concentration of 2.5 mg per ml of tissue suspension. […] Receptor Binding Assay: […] In competition studies, experimental compounds are diluted in dimethylsulfoxide (DMSO) and added in 20 ul to wells before the introduction of tissue membranes. […] Assays are performed in triplicate. The wells are left undisturbed for 60 minutes at room temperature. Following incubation, all wells are harvested at once with a Brandel® Harvester especially designed for a 96 well plate (Brandel® Biomedical Research & Development Labs. Inc., Gaithersburg, Md., U.S.A.). The filter discs are washed with 10×1.0 ml of cold 0.9% NaCl to remove unbound ligand. Presoaking the filter sheet in 0.1% polyethyleneimine in normal saline (PEI/Saline) greatly reduces the radioactivity retained by the filter blanks. This method is routinely used. The filters are removed from the filter grid and counted in a Parkard® Cobra Gamma Counter for 1 minutes. (Packard Instrument Co., Downers Grove, Ill, U.S.A.). The binding data are analyzed by the non-linear interactive "LUNDON-1" program (LUNDON SOFTWARE Inc., Cleveland, Ohio U.S.A.).

[2] = system: ANGIOTENSIN II VASOPRESSOR RESPONSE; test: AII Challenge: blockade of angiotensin II vasopressor response in conscious SHR; type: in vivo, rat (Conscious Male Okamoto-Aoki SHR); settings: SHR n=2
From the text: By administering a compound of this invention to a rat, and then challenging with angiotensin II, a blockage of the vasopressor response is realized.
Conscious Male Okamoto-Aoki SHR, 16-20 weeks old, weighing approximately 330 g are purchased from Charles River Labs (Wilmington, Mass.). Conscious rats are restrained in a supine position with elastic tape. The area at the base of the tail is locally anesthetized by subcutaneous infiltration with 2% procaine. The ventral caudal artery and vein are isolated, and a cannula made of polyethylene (PE) 10-20 tubing (fused together by heat) is passed into the lower abdominal aorta and vena cava, respectively. The cannula is secured, heparinized (1,000 I.U./ml), sealed and the wound is closed. The animals are placed in plastic restraining cages in an upright position. The cannula is attached to a Statham P23Db pressure transducer, and pulsatile blood pressure is recorded to 10-15 minutes with a Gould Brush recorder. (Chan et al., (Drug Development Res., 18:75-94, 1989).
Angiotensin II (human sequence, Sigma Chem. Co., St. Louis, MO) of 0.05 and 0.1 ug/kg i.v. is injected into all rats (predosing response). Then a test compound, vehicle or a known angiotensin II antagonist is administered i.v., i.p. or orally to each set of rats. The two doses of angiotensin II are given to each rat again at 30, 60, 90, 120, 180, 240 and 300 minutes post dosing the compound or vehicle. The vasopressor response of angiotensin II is measured for the increase in systolic blood pressure in mmHg. The percentage of antagonism or blockade of the vasopressor response of angiotensin II by a compound is calculated using the vasopressor response (increase in systolic blood pressure) of angiotensin II of each rat predosing the compound as 100%. A compound is considered active if at 30 mg/kg i.v. it antagonized at least 50% of the response.

[3] = 3 mg/kg i.v., AII 0.05 mcg/kg IV, 30 min post dose
[4] = 3 mg/kg i.v., AII 0.05 mcg/kg IV, 60 min post dose
[5] = 3 mg/kg i.v., AII 0.05 mcg/kg IV, 90 min post dose
[6] = 3 mg/kg i.v., AII 0.05 mcg/kg IV, 120 min post dose
[7] = 3 mg/kg i.v., AII 0.05 mcg/kg IV, 180 min post dose
[8] = 3 mg/kg i.v., AII 0.05 mcg/kg IV, 240 min post dose
[9] = 3 mg/kg i.v., AII 0.05 mcg/kg IV, 300 min post dose
[10] = 3 mg/kg i.v., AII 0.1 mcg/kg IV, 30 min post dose
[11] = 3 mg/kg i.v., AII 0.1 mcg/kg IV, 60 min post dose
[12] = 3 mg/kg i.v., AII 0.1 mcg/kg IV, 90 min post dose
[13] = 3 mg/kg i.v., AII 0.1 mcg/kg IV, 120 min post dose
[14] = 3 mg/kg i.v., AII 0.1 mcg/kg IV, 180 min post dose
[15] = 3 mg/kg i.v., AII 0.1 mcg/kg IV, 240 min post dose
[16] = 3 mg/kg i.v., AII 0.1 mcg/kg IV, 300 min post dose
[17] = 10 mg/kg i.v., AII 0.05 mcg/kg IV, 30 min post dose
[18] = 10 mg/kg i.v., AII 0.05 mcg/kg IV, 60 min post dose
[19] = 10 mg/kg i.v., AII 0.05 mcg/kg IV, 90 min post dose
[20] = 10 mg/kg i.v., AII 0.05 mcg/kg IV, 120 min post dose
[21] = 10 mg/kg i.v., AII 0.05 mcg/kg IV, 180 min post dose
[22] = 10 mg/kg i.v., AII 0.05 mcg/kg IV, 240 min post dose
[23] = 10 mg/kg i.v., AII 0.05 mcg/kg IV, 300 min post dose
[24] = 10 mg/kg i.v., AII 0.1 mcg/kg IV, 30 min post dose
[25] = 10 mg/kg i.v., AII 0.1 mcg/kg IV, 60 min post dose
[26] = 10 mg/kg i.v., AII 0.1 mcg/kg IV, 90 min post dose
[27] = 10 mg/kg i.v., AII 0.1 mcg/kg IV, 120 min post dose
[28] = 10 mg/kg i.v., AII 0.1 mcg/kg IV, 180 min post dose
[29] = 10 mg/kg i.v., AII 0.1 mcg/kg IV, 240 min post dose
[30] = 10 mg/kg i.v., AII 0.1 mcg/kg IV, 300 min post dose

CCCCc1nc2ccc(C(C)(O)C3CCN(C)C3=O)cc2c(=O)n1Cc1ccc(-c2ccccc2-c2nn[nH]n2)cc1 (single isomer, unassigned; isomer 1) [Example 47, 2-Butyl-6-1-hydroxy-1-(1-methyl-2-oxo-3-pyrrolidinyl)ethyl]-3-[[2'-[1H(tetrazol-5yl)-[1,1'-biphenyl]-4-yl]methyl-4(3H)-quinazolinone isomer 1]
IC50 [1]: 40 nM | % Inhibition of AII vasopressor response [2, 3]: 75% | Average Change (systolic blood pressure response to AII) [2, 3]: 10 mmHg | % Inhibition of AII vasopressor response [2, 4]: 75% | Average Change (systolic blood pressure response to AII) [2, 4]: 10 mmHg | % Inhibition of AII vasopressor response [2, 5]: 63% | Average Change (systolic blood pressure response to AII) [2, 5]: 15 mmHg | % Inhibition of AII vasopressor response [2, 6]: 69% | Average Change (systolic blood pressure response to AII) [2, 6]: 12.5 mmHg | % Inhibition of AII vasopressor response [2, 7]: 75% | Average Change (systolic blood pressure response to AII) [2, 7]: 10 mmHg | % Inhibition of AII vasopressor response [2, 8]: 38% | Average Change (systolic blood pressure response to AII) [2, 8]: 25 mmHg | % Inhibition of AII vasopressor response [2, 9]: 29% | Average Change (systolic blood pressure response to AII) [2, 9]: 28.5 mmHg | % Inhibition of AII vasopressor response [2, 10]: 73% | Average Change (systolic blood pressure response to AII) [2, 10]: 11.5 mmHg | % Inhibition of AII vasopressor response [2, 11]: 65% | Average Change (systolic blood pressure response to AII) [2, 11]: 15 mmHg | % Inhibition of AII vasopressor response [2, 12]: 76% | Average Change (systolic blood pressure response to AII) [2, 12]: 10 mmHg | % Inhibition of AII vasopressor response [2, 13]: 82% | Average Change (systolic blood pressure response to AII) [2, 13]: 7.5 mmHg | % Inhibition of AII vasopressor response [2, 14]: 59% | Average Change (systolic blood pressure response to AII) [2, 14]: 17.5 mmHg | % Inhibition of AII vasopressor response [2, 15]: 29% | Average Change (systolic blood pressure response to AII) [2, 15]: 30 mmHg | % Inhibition of AII vasopressor response [2, 16]: 18% | Average Change (systolic blood pressure response to AII) [2, 16]: 35 mmHg

CCCCc1nc2ccc(C(C)(O)C3CCCN(C)C3=O)cc2c(=O)n1Cc1ccc(-c2ccccc2-c2nn[nH]n2)cc1 (single isomer, unassigned; isomer 1) [Example 52, 2-Butyl-6-[1-hydroxy(1-methyl-2-oxo-3-piperidinyl)ethyl]-3-[[2'-(1H-tetrazol-5-yl)-[1,1'-biphenyl]-4-yl]methyl]-4(3H)-quinazolinone, isomer 1]
IC50 [1]: 62 nM | % Inhibition of AII vasopressor response [2, 17]: 71% | Average Change (systolic blood pressure response to AII) [2, 17]: 12.5 mmHg | % Inhibition of AII vasopressor response [2, 18]: 94% | Average Change (systolic blood pressure response to AII) [2, 18]: 2.5 mmHg | % Inhibition of AII vasopressor response [2, 19]: 76% | Average Change (systolic blood pressure response to AII) [2, 19]: 10 mmHg | % Inhibition of AII vasopressor response [2, 20]: 59% | Average Change (systolic blood pressure response to AII) [2, 20]: 17.5 mmHg | % Inhibition of AII vasopressor response [2, 21]: 47% | Average Change (systolic blood pressure response to AII) [2, 21]: 22.5 mmHg | % Inhibition of AII vasopressor response [2, 22]: 29% | Average Change (systolic blood pressure response to AII) [2, 22]: 30 mmHg | % Inhibition of AII vasopressor response [2, 23]: 47% | Average Change (systolic blood pressure response to AII) [2, 23]: 22.5 mmHg | % Inhibition of AII vasopressor response [2, 24]: 85% | Average Change (systolic blood pressure response to AII) [2, 24]: 7.5 mmHg | % Inhibition of AII vasopressor response [2, 25]: 90% | Average Change (systolic blood pressure response to AII) [2, 25]: 5 mmHg | % Inhibition of AII vasopressor response [2, 26]: 70% | Average Change (systolic blood pressure response to AII) [2, 26]: 15 mmHg | % Inhibition of AII vasopressor response [2, 27]: 80% | Average Change (systolic blood pressure response to AII) [2, 27]: 10 mmHg | % Inhibition of AII vasopressor response [2, 28]: 55% | Average Change (systolic blood pressure response to AII) [2, 28]: 22.5 mmHg | % Inhibition of AII vasopressor response [2, 29]: 45% | Average Change (systolic blood pressure response to AII) [2, 29]: 27.5 mmHg | % Inhibition of AII vasopressor response [2, 30]: 45% | Average Change (systolic blood pressure response to AII) [2, 30]: 27.5 mmHg
